In ChEMBL document CHEMBL3132846 (Medchemcomm, 2014):
Active and inactive are the calls of the source. The rule behind the calls is not given here.

Assays:
[1] = Cytotoxicity against human BGC823 cells after 48 hrs by MTT assay; type: functional, cell-based; details: BGC-823, 48 h
A549 = test: Cytotoxicity against human A549 cells after 48 hrs by MTT assay; type: functional, cell-based; details: A549, 48 h
MCF7 = test: Cytotoxicity against human MCF7 cells after 48 hrs by MTT assay; type: functional, cell-based; details: MCF7, 48 h
[2] = Cytotoxicity against human Bel7402 cells after 48 hrs by MTT assay; type: functional, cell-based; details: Bel-7402, 48 h
SiHa = test: Cytotoxicity against human SiHa cells after 48 hrs by MTT assay; type: functional, cell-based
[3] = Cytotoxicity against human NCI-460 cells after 48 hrs by MTT assay; type: functional, cell-based; details: NCI-460, 48 h
BeWo = test: Cytotoxicity against human Bewo cells after 48 hrs by MTT assay; type: functional, cell-based
HL-60 = test: Cytotoxicity against human HL60 cells after 48 hrs by MTT assay; type: functional, cell-based; details: HL-60, 48 h
HeLa = test: Cytotoxicity against human HeLa cells after 48 hrs by MTT assay; type: functional, cell-based
Ishikawa = test: Cytotoxicity against human Ishikawa cells after 48 hrs by MTT assay; type: functional, cell-based
[4] = Cytotoxicity against human SKBR3 cells after 48 hrs by MTT assay; type: functional, cell-based; details: SK-BR-3, 48 h
[5] = Cytotoxicity against human JeKo1 cells after 48 hrs by MTT assay; type: functional, cell-based; details: JeKo-1, 48 h
Mus musculus = test: Toxicity in ICR mouse allografted with mouse S180 cells assessed as body weight loss at 200 mg/kg, ig qd administered for 6 days relative to vehicle-treated control; type: organism-based, CCRF S-180; parameters: dose 200 mg/kg, route intragastric; details: in vivo, po, 144 h
CCRF S-180 [6] = test: Antitumor activity against mouse S180 cells allografted in ICR mouse assessed as tumor growth inhibition at 200 mg/kg, ig qd administered for 6 days relative to vehicle-treated control; type: functional; details: CCRF S-180, po, 144 h, route intragastric, read-out: TGI
CCRF S-180 [7] = test: Antitumor activity against mouse S180 cells allografted in ICR mouse assessed as tumor growth inhibition at 30 mg/kg, ig qd administered for 6 days relative to vehicle-treated control; type: functional; details: CCRF S-180, po, 144 h, route intragastric, read-out: TGI
HUVEC [8] = test: Cytotoxicity against HUVEC assessed as mitochondrial metabolism after 48 hrs by MTT assay; type: cell-based, Homo sapiens; details: for IC50: Homo sapiens, HUVEC; for Activity: human, huvec
HUVEC [9] = test: Antiangiogenic activity against HUVEC assessed as inhibition of cell migration at 2.5 ug/ml after 24 hrs by wound healing assay relative to control; type: functional; details: Homo sapiens
HUVEC [10] = test: Antiangiogenic activity against HUVEC assessed as inhibition of tube formation at 12.5 ug/ml after 24 hrs relative to control; type: functional, cell-based; details: Homo sapiens
HUVEC [11] = test: Antiangiogenic activity against HUVEC assessed as inhibition of cell migration at 10 ug/ml after 24 hrs by wound healing assay relative to control; type: functional; details: Homo sapiens

SMILES	IC50 [1]	IC50 (A549)	IC50 (MCF7)	IC50 [2]	IC50 (SiHa)	IC50 [3]	IC50 (BeWo)	IC50 (HL-60)	IC50 (HeLa)	IC50 (Ishikawa)	IC50 [4]	IC50 [5]	Activity (Mus musculus)	inhibition in vivo at 200 mg/kg (CCRF S-180 [6])	inhibition in vivo at 30 mg/kg (CCRF S-180 [7])	IC50 (HUVEC [8])	inhibition at 2.5 µg/mL (HUVEC [9])	Activity (HUVEC [8])	Activity (HUVEC [10])	inhibition at 10 µg/mL (HUVEC [11])
COc1ccc(/C=N/NC(=O)Cc2cccc3c(=O)c4ccc(C)c(C)c4oc23)cc1O	> 100 µM	54.9 µM	> 100 µM	> 100 µM	> 100 µM	> 100 µM	> 100 µM	> 100 µM	> 100 µM	> 100 µM	–	–	–	–	–	–	–	–	–	–
COc1c(O)ccc(/C=N/NC(=O)Cc2cccc3c(=O)c4ccc(C)c(C)c4oc23)c1[N+](=O)[O-]	–	> 100 µM	–	–	–	–	–	–	–	–	–	–	–	–	–	–	–	–	–	–
Cc1ccc2c(=O)c3cccc(CC(=O)N/N=C/c4ccccc4O)c3oc2c1C	> 100 µM	21.4 µM	> 100 µM	> 100 µM	> 100 µM	> 100 µM	67.2 µM	52.8 µM	> 100 µM	> 100 µM	> 10 µg/mL	> 10 µg/mL	–	–	–	–	–	–	–	–
CCCNC(=O)Cc1cccc2c(=O)c3ccc(C)c(C)c3oc12	> 100 µM	28.9 µM	> 100 µM	> 100 µM	92 µM	> 100 µM	> 100 µM	> 100 µM	> 100 µM	> 100 µM	–	–	10.32%	25.6%	–	–	–	–	–	–
Cc1ccc2c(=O)c3cccc(CC(=O)O)c3oc2c1C [VADIMEZAN]	> 100 µM	> 100 µM	> 100 µM	> 100 µM	> 100 µM	> 100 µM	> 100 µM	> 100 µM	> 100 µM	> 100 µM	–	–	–	–	76.2%	> 20 µM	–	–	–	–
Cc1ccc2c(=O)c3cccc(CC(=O)Nc4ccc(Cl)cc4)c3oc2c1C	–	9.39 µM	> 100 µM	–	46.6 µM	–	32 µM	67.6 µM	> 100 µM	> 100 µM	–	–	12.37%	27.8%	–	6.87 µM	45.6%	Dose-dependent effect	Active	65.8%
COc1cc(/C=N/NC(=O)Cc2cccc3c(=O)c4ccc(C)c(C)c4oc23)cc(OC)c1OC	–	15.7 µM	> 100 µM	–	> 100 µM	–	> 100 µM	> 100 µM	> 100 µM	> 100 µM	–	–	–	–	–	–	–	–	–	–
CC(C)=CCC(=O)NNC(=O)Cc1cccc2c(=O)c3ccc(C)c(C)c3oc12	–	–	–	–	–	–	–	–	–	–	> 10 µg/mL	> 10 µg/mL	–	–	–	–	–	–	–	–
Cc1ccc2c(=O)c3cccc(CC(=O)Nc4ccc(F)c(Cl)c4)c3oc2c1C	–	25.8 µM	> 100 µM	–	32.4 µM	–	> 100 µM	76.1 µM	94.2 µM	> 100 µM	–	–	–	–	–	–	–	–	–	–
C/C=C/CC(=O)NNC(=O)Cc1cccc2c(=O)c3ccc(C)c(C)c3oc12	–	–	–	–	–	–	–	–	–	–	> 10 µg/mL	> 10 µg/mL	–	–	–	–	–	–	–	–
COc1cccc(/C=N/NC(=O)Cc2cccc3c(=O)c4ccc(C)c(C)c4oc23)c1	> 100 µM	50.7 µM	> 100 µM	> 100 µM	> 100 µM	> 100 µM	84.9 µM	> 100 µM	> 100 µM	> 100 µM	–	–	–	–	–	–	–	–	–	–
C#CCOC(=O)Cc1cccc2c(=O)c3ccc(C)c(C)c3oc12	81.5 µM	> 100 µM	> 100 µM	> 100 µM	> 100 µM	> 100 µM	> 100 µM	> 100 µM	> 100 µM	> 100 µM	> 10 µg/mL	> 10 µg/mL	–	–	–	–	–	–	–	–
CCCCNC(=O)Cc1cccc2c(=O)c3ccc(C)c(C)c3oc12	–	46.9 µM	43.8 µM	–	> 100 µM	–	> 100 µM	44.7 µM	> 100 µM	> 100 µM	–	–	–	–	–	–	–	–	–	–
Cc1ccc2c(=O)c3cccc(CC(=O)Nc4ccc(Cl)cn4)c3oc2c1C	–	> 100 µM	95.9 µM	–	> 100 µM	–	> 100 µM	80.9 µM	> 100 µM	> 100 µM	–	–	–	–	–	–	–	–	–	–
Cc1ccc2c(=O)c3cccc(CC(=O)N/N=C/c4ccc5c(c4)OCO5)c3oc2c1C	> 100 µM	86.8 µM	> 100 µM	> 100 µM	> 100 µM	> 100 µM	> 100 µM	> 100 µM	> 100 µM	> 100 µM	–	–	–	–	–	–	–	–	–	–
CCOC(=O)c1ccc(NC(=O)Cc2cccc3c(=O)c4ccc(C)c(C)c4oc23)cc1	> 100 µM	39.6 µM	> 100 µM	> 100 µM	> 100 µM	> 100 µM	45.5 µM	90.9 µM	> 100 µM	> 100 µM	–	–	–	–	–	–	–	–	–	–

SMILES	IC50 [1]	IC50 (A549)	IC50 (MCF7)	IC50 [2]	IC50 (SiHa)	IC50 [3]	IC50 (BeWo)	IC50 (HL-60)	IC50 (HeLa)	IC50 (Ishikawa)	IC50 [4]	IC50 [5]	Activity (Mus musculus)	inhibition in vivo at 200 mg/kg (CCRF S-180 [6])	inhibition in vivo at 30 mg/kg (CCRF S-180 [7])	IC50 (HUVEC [8])	inhibition at 2.5 µg/mL (HUVEC [9])	Activity (HUVEC [8])	Activity (HUVEC [10])	inhibition at 10 µg/mL (HUVEC [11])
COc1ccc(/C=C\c2cc(OC)c(OC)c(OC)c2)cc1O [COMBRETASTATIN A4]	–	–	25.5 µM	–	> 100 µM	–	12.7 µM	< 0.03 µM	14.8 µM	20.1 µM	–	–	–	–	–	–	–	–	–	–
Cc1ccc2c(=O)c3cccc(CC(=O)Nc4ccc([N+](=O)[O-])c(C(F)(F)F)c4)c3oc2c1C	–	> 100 µM	> 100 µM	–	63.2 µM	–	> 100 µM	93.8 µM	> 100 µM	> 100 µM	–	–	–	–	–	–	–	–	–	–
Cc1ccc2c(=O)c3cccc(CC(=O)N/N=C/c4ccc(O)cc4)c3oc2c1C	–	35.9 µM	> 100 µM	–	> 100 µM	–	73.7 µM	> 100 µM	> 100 µM	> 100 µM	–	–	–	–	–	–	–	–	–	–
COc1cc(/C=N/NC(=O)Cc2cccc3c(=O)c4ccc(C)c(C)c4oc23)ccc1O	–	> 100 µM	–	–	–	–	–	–	–	–	–	–	–	–	–	–	–	–	–	–
Cc1ccc2c(=O)c3cccc(CC(=O)N/N=C/c4cc(Cl)ccc4O)c3oc2c1C	> 100 µM	11.5 µM	> 100 µM	> 100 µM	> 100 µM	> 100 µM	76.4 µM	20.8 µM	36.2 µM	68.4 µM	> 10 µg/mL	> 10 µg/mL	–	–	–	> 20 µM	–	–	–	–
Cc1ccc2c(=O)c3cccc(CC(=O)Nc4ccccc4)c3oc2c1C	> 100 µM	77.6 µM	> 100 µM	> 100 µM	> 100 µM	> 100 µM	> 100 µM	4.59 µM	> 100 µM	> 100 µM	–	–	10.2%	18.4%	–	> 20 µM	–	–	–	–
Cc1ccc2c(=O)c3cccc(CC(=O)Nc4ccc(Cl)c(Cl)c4)c3oc2c1C	–	92 µM	> 100 µM	–	96.1 µM	–	> 100 µM	42.4 µM	18.7 µM	> 100 µM	–	–	12.87%	29.6%	–	6.4 µM	67.6%	Dose-dependent effect	Active	89.7%
CCOC(=O)Cc1cccc2c(=O)c3ccc(C)c(C)c3oc12	–	–	–	–	–	–	–	–	–	–	–	–	8.5%	4.04%	–	–	–	–	–	–
CCC/C=C/C(=O)NNC(=O)Cc1cccc2c(=O)c3ccc(C)c(C)c3oc12	–	–	–	–	–	–	–	–	–	–	> 10 µg/mL	> 10 µg/mL	–	–	–	–	–	–	–	–
CCCCCC(=O)NNC(=O)Cc1cccc2c(=O)c3ccc(C)c(C)c3oc12	–	–	–	–	–	–	–	–	–	–	> 10 µg/mL	> 10 µg/mL	–	–	–	–	–	–	–	–
COc1ccc(/C=N/NC(=O)Cc2cccc3c(=O)c4ccc(C)c(C)c4oc23)cc1	–	> 100 µM	> 100 µM	–	> 100 µM	–	> 100 µM	> 100 µM	> 100 µM	91.2 µM	–	–	–	–	–	–	–	–	–	–
CCOC(=O)CCNC(=O)Cc1cccc2c(=O)c3ccc(C)c(C)c3oc12	76.4 µM	35 µM	40.6 µM	> 100 µM	98 µM	> 100 µM	26.2 µM	79.9 µM	> 100 µM	> 100 µM	–	–	–	–	–	–	–	–	–	–
Cc1ccc2c(=O)c3cccc(CC(=O)N/N=C/c4ccc(O)c(O)c4)c3oc2c1C	–	> 100 µM	–	–	–	–	–	–	–	–	–	–	–	–	–	–	–	–	–	–
Cc1ccc2c(=O)c3cccc(CC(=O)Nc4cccc(Cl)c4)c3oc2c1C	–	10.8 µM	> 100 µM	–	36.1 µM	–	66.5 µM	91.2 µM	25.4 µM	> 100 µM	–	–	10.7%	22.4%	–	11.1 µM	32.6%	Dose-dependent effect	–	58.2%
CCOC(=O)CNC(=O)Cc1cccc2c(=O)c3ccc(C)c(C)c3oc12	–	42.9 µM	46.4 µM	–	> 100 µM	–	> 100 µM	> 100 µM	> 100 µM	61.9 µM	–	–	–	–	–	–	–	–	–	–
